# According to article PMC4286029 (Inflammation Research, 2014):
# Columns and labels:
# [1] = biological target: T1, PKCβI (Homo sapiens, UniProt P05771); experiment: KinaseProfiler selectivity: PKCβI; assay type: biochemical
# T1 construct: purchased Millipore Co. Ltd. (KinaseProfiler service)
# Method: (§1) […]; The selectivity of JTE-052 for other kinases was assessed using KinaseProfiler™ (Millipore Co. Ltd.). […].
# [2] = biological target: T2, KDR (Homo sapiens, UniProt P35968); experiment: KinaseProfiler selectivity: KDR; assay type: biochemical
# T2 construct: purchased Millipore Co. Ltd. (KinaseProfiler service)
# Method: as §1
# [3] = biological target: T3, FGFR3 (Homo sapiens, UniProt P22607); experiment: KinaseProfiler selectivity: FGFR3; assay type: biochemical
# T3 construct: purchased Millipore Co. Ltd. (KinaseProfiler service)
# Method: as §1
# [4] = biological target: T4, MSK1 (Homo sapiens, UniProt O75582); experiment: KinaseProfiler selectivity: MSK1; assay type: biochemical
# T4 construct: purchased Millipore Co. Ltd. (KinaseProfiler service)
# Method: as §1
# [5] = biological target: T5, JNK3 (Homo sapiens, UniProt P53779); experiment: KinaseProfiler selectivity: JNK3; assay type: biochemical
# T5 construct: purchased Millipore Co. Ltd. (KinaseProfiler service)
# Method: as §1
# [6] = biological target: T6, SAPK2a (Homo sapiens, UniProt Q16539); experiment: KinaseProfiler selectivity: SAPK2a; assay type: biochemical
# T6 construct: purchased Millipore Co. Ltd. (KinaseProfiler service)
# T6 sequence (Q16539 whole entry, species assumed): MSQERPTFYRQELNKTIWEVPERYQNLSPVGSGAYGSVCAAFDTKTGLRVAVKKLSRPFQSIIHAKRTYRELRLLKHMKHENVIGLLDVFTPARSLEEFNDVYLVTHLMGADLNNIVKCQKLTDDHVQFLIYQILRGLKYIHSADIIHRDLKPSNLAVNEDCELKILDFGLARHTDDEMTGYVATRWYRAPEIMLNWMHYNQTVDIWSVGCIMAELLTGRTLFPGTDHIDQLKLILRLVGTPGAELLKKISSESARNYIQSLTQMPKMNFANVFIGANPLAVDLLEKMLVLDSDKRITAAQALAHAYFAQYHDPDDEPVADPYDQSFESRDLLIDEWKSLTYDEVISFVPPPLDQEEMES
# Method: as §1
# [7] = biological target: T7, GSK3β (Homo sapiens, UniProt P49841); experiment: KinaseProfiler selectivity: GSK3β; assay type: biochemical
# T7 construct: purchased Millipore Co. Ltd. (KinaseProfiler service)
# T7 sequence (P49841 whole entry, species assumed): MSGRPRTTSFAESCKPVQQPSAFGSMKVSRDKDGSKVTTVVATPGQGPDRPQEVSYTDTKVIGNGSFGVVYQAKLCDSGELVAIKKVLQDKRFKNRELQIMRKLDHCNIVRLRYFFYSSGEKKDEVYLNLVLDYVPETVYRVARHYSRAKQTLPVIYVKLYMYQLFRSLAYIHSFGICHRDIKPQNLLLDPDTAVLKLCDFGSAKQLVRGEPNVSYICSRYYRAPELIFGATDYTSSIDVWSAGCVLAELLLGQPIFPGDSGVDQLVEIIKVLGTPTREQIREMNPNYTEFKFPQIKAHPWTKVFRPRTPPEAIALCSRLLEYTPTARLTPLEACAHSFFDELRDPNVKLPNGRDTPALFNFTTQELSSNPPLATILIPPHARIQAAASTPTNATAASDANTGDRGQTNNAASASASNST
# Method: as §1
# [8] = biological target: T8, p70S6 K (Homo sapiens, UniProt P23443); experiment: KinaseProfiler selectivity: p70S6 K; assay type: biochemical
# T8 construct: purchased Millipore Co. Ltd. (KinaseProfiler service)
# Method: as §1
# [9] = biological target: T9, IKKβ (Homo sapiens, UniProt O14920); experiment: KinaseProfiler selectivity: IKKβ; assay type: biochemical
# T9 construct: purchased Millipore Co. Ltd. (KinaseProfiler service)
# T9 sequence (O14920 whole entry, species assumed): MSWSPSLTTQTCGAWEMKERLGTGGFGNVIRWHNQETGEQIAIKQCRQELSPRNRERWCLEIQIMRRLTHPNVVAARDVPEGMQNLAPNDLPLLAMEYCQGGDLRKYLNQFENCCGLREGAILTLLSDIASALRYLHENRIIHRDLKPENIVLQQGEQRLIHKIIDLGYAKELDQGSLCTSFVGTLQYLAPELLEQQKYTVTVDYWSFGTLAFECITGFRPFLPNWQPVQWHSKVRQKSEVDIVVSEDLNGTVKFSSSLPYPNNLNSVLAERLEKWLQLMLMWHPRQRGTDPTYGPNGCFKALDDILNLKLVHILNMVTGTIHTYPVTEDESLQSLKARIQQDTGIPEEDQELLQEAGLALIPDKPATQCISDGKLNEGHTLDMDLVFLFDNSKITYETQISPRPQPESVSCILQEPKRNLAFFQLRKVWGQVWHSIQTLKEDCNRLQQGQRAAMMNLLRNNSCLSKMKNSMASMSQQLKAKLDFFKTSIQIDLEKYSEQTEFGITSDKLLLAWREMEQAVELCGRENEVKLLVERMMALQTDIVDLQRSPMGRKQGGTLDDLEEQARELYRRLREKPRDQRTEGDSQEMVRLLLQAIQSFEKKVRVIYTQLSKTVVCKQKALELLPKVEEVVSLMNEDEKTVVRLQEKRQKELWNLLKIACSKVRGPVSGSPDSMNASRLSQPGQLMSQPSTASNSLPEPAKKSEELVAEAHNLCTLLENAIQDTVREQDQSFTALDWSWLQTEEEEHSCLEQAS
# Method: as §1
# [10] = test system: IL-2-induced IFN-γ production; experiment: IL-2-induced IFN-γ production in mice; assay type: in vivo, DBA/1J mice; settings: Mus musculus, po
# Method: DBA/1J mice were dosed once via oral gavage with compounds. At 1 or 6 h after compound administration, the mice were injected intraperitoneally with 2 μg of recombinant mouse IL-2 and 10 μg of biotinylated anti-mouse IFN-γ capture antibody. After 6 h, the mice were euthanized, and blood was collected. Serum IFN-γ was quantified using a Mouse IFN-γ In Vivo Capture Assay Set (BD Biosciences).
# After 1 or 6 h, they were injected with IL-2 and anti-mouse IFN-γ capture antibody. At 6 h after the injection, blood samples were collected, and the serum IFN-γ levels were measured.
# [11] = biological target: T10, EGFR (Homo sapiens, UniProt P00533); experiment: KinaseProfiler selectivity: EGFR; assay type: biochemical
# T10 construct: purchased Millipore Co. Ltd. (KinaseProfiler service)
# Method: as §1
# [12] = biological target: T11, cKit (Homo sapiens, UniProt P10721); experiment: KinaseProfiler selectivity: cKit; assay type: biochemical
# T11 construct: purchased Millipore Co. Ltd. (KinaseProfiler service)
# Method: as §1
# [13] = biological target: T12, JNK2α2 (Homo sapiens, UniProt P45984); experiment: KinaseProfiler selectivity: JNK2α2; assay type: biochemical
# T12 construct: purchased Millipore Co. Ltd. (KinaseProfiler service)
# Method: as §1
# [14] = biological target: T13, SGK (Homo sapiens, UniProt O00141); experiment: KinaseProfiler selectivity: SGK; assay type: biochemical
# T13 construct: purchased Millipore Co. Ltd. (KinaseProfiler service)
# T13 sequence (O00141 whole entry): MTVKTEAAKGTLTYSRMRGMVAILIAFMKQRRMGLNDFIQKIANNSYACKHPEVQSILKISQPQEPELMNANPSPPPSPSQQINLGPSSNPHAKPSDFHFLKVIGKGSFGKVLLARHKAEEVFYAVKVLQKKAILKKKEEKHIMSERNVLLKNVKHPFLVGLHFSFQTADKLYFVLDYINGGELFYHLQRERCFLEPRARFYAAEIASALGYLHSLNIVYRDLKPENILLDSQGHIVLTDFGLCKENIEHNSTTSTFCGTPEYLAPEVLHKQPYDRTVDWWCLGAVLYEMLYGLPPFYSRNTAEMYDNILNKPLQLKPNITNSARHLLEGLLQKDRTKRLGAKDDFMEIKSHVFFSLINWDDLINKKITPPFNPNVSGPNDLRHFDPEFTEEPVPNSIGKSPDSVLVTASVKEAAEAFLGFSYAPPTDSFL
# Method: as §1
# [15] = test system: kinases in KinaseProfiler; experiment: KinaseProfiler panel as a whole (selectivity for other kinases); assay type: biochemical; settings: concentration of 1,000 nM
# Method: as §1
# [16] = biological target: T14, MAPK2 (Homo sapiens, UniProt P28482); experiment: KinaseProfiler selectivity: MAPK2; assay type: biochemical
# T14 construct: purchased Millipore Co. Ltd. (KinaseProfiler service)
# T14 sequence (P28482 whole entry): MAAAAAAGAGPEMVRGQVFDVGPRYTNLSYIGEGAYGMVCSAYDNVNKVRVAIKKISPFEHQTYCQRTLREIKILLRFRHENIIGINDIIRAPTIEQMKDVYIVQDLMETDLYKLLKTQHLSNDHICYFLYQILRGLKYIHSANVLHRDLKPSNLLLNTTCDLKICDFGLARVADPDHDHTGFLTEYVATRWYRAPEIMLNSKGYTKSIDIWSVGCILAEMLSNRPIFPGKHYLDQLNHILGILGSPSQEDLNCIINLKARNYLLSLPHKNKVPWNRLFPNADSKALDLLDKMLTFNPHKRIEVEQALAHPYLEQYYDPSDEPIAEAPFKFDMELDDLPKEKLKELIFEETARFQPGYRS
# Method: as §1
# [17] = biological target: T15, PKCα (Homo sapiens, UniProt P17252); experiment: KinaseProfiler selectivity: PKCα; assay type: biochemical
# T15 construct: purchased Millipore Co. Ltd. (KinaseProfiler service)
# Method: as §1
# [18] = biological target: T16, PKCζ (Homo sapiens, UniProt Q05513); experiment: KinaseProfiler selectivity: PKCζ; assay type: biochemical
# T16 construct: purchased Millipore Co. Ltd. (KinaseProfiler service)
# T16 sequence (Q05513 whole entry): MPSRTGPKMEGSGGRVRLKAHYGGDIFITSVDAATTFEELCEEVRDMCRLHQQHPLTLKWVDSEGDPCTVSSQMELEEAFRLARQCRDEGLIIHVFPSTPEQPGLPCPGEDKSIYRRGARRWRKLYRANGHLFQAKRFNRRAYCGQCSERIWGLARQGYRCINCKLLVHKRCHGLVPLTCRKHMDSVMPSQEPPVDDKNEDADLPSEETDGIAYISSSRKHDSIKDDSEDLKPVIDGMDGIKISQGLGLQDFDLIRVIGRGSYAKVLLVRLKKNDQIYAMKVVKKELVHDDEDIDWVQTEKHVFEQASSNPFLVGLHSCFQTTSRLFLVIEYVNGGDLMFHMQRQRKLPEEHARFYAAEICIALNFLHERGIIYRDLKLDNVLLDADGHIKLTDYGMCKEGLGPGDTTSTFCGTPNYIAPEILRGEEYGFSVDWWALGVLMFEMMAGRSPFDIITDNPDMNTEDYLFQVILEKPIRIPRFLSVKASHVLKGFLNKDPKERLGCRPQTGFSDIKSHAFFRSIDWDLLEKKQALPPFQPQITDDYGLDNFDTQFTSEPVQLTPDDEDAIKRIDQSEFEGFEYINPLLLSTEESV
# Method: as §1
# [19] = biological target: T17, Syk (Homo sapiens, UniProt P43405); experiment: KinaseProfiler selectivity: Syk; assay type: biochemical
# T17 construct: purchased Millipore Co. Ltd. (KinaseProfiler service)
# Method: as §1
# [20] = biological target: T18, Flt3 (Homo sapiens, UniProt P36888); experiment: KinaseProfiler selectivity: Flt3; assay type: biochemical
# T18 construct: purchased Millipore Co. Ltd. (KinaseProfiler service)
# Method: as §1
# [21] = biological target: T19, Aurora-A (Homo sapiens, UniProt O14965); experiment: KinaseProfiler selectivity: Aurora-A; assay type: biochemical
# T19 construct: purchased Millipore Co. Ltd. (KinaseProfiler service)
# Method: as §1
# [22] = biological target: T20, ROCK-II (Homo sapiens, UniProt O75116); experiment: KinaseProfiler selectivity: ROCK-II; assay type: biochemical
# T20 construct: purchased Millipore Co. Ltd. (KinaseProfiler service)
# T20 sequence (O75116 whole entry, species assumed): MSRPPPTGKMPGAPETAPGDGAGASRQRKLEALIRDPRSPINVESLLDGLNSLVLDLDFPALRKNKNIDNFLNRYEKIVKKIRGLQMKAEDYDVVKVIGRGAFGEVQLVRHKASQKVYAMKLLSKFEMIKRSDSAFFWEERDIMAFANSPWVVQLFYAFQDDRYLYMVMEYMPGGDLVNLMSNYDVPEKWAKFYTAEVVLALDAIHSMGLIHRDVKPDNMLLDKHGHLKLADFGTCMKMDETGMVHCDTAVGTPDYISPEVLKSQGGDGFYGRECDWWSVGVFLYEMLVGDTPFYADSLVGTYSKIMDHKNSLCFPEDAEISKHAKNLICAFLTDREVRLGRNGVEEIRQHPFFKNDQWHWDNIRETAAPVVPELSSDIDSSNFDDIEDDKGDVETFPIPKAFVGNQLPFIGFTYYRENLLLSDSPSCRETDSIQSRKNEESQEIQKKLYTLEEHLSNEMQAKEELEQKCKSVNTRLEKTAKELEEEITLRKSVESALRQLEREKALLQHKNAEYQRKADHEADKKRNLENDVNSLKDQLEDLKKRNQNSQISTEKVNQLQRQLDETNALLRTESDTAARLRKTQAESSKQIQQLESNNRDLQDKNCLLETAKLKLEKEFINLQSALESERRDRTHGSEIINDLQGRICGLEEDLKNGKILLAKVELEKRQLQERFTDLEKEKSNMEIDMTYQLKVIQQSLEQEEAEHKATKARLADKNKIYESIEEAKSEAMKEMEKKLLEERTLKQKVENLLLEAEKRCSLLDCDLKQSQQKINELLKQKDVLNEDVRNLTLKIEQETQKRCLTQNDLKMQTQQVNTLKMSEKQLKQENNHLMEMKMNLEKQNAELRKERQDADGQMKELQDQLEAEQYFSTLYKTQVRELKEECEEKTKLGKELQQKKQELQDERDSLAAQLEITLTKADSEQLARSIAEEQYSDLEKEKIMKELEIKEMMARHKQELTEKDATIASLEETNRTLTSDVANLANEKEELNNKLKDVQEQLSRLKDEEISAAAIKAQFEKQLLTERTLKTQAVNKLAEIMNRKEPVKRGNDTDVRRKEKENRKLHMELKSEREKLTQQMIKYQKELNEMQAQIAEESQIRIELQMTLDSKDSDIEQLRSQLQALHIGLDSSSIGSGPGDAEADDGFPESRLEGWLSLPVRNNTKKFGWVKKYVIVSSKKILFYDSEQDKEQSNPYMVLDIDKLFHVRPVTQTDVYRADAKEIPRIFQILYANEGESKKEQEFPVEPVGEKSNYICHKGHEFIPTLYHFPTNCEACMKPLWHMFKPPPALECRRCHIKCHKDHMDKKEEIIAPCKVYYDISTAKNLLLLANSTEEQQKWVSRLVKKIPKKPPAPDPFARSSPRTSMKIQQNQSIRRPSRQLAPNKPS
# Method: as §1
# [23] = Cytotoxicity: fibroblast (NHLF) proliferation ([3H]thymidine); settings: human, normal human lung fibroblasts (NHLF)
# Method: For determination of cytotoxicity, fibroblast proliferation was measured.
# [24] = test system: human mast cells; settings: Mast cell, read-out: IC50, IL-4 priming of Fcε receptor-dependent TNF-α production in mast cells
# Method: The cells were then replated at 1.2 × 10^5 cells/well and cultured with 1 μg/mL anti-IgE for an additional 5 h at 37 °C. The supernatants were collected, and secretion of TNF-α was measured by ELISA.
smiles,measurement,setting,value
C[C@H]1CN(C(=O)CC#N)[C@]12CCN(c1ncnc3[nH]ccc13)C2 [JTE-052],IC50,[1],> 1000 nM
same,IC50,[2],> 1000 nM
same,IC50,[3],> 1000 nM
same,IC50,[4],> 1000 nM
same,IC50,[5],> 1000 nM
same,IC50,[6],> 1000 nM
same,IC50,[7],> 1000 nM
same,IC50,[8],> 1000 nM
same,IC50,[9],> 1000 nM
same,ED50,[10]; dosed 1 h prior to IL-2 injection,0.24 mg/kg
same,ED50,[10]; dosed 6 h prior to IL-2 injection,1.3 mg/kg
same,IC50,[11],> 1000 nM
same,IC50,[12],> 1000 nM
same,IC50,[13],> 1000 nM
same,IC50,[14],> 1000 nM
same,inhibition of other kinases in KinaseProfiler,[15],"did not inhibit any of the kinases even at the concentration of 1,000 nM, except for ROCK-II"
same,IC50,[16],> 1000 nM
same,IC50,[17],> 1000 nM
same,IC50,[18],> 1000 nM
same,IC50,[19],> 1000 nM
same,IC50,[20],> 1000 nM
same,IC50,[21],> 1000 nM
same,IC50,[22],141 nM
same,IC50 at 3 days,[23],> 10000 nM
same,IC50,[24],133 ± 18 nM
